PubChem BioAssay (NCI)
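GI50: concentration for 50% inhibition of growth. TGI marks complete inhibition of growth.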

Assays:
Assay in all cases: NCI-60 cell line screen, 384-well format
PC-3 prostate = tested on: PC-3 prostate
CCRF-CEM leukemia = tested on: CCRF-CEM leukemia
OVCAR-5 ovarian = tested on: OVCAR-5 ovarian
HT29 colon = tested on: HT29 colon
A498 renal = tested on: A498 renal
NCI-H322M lung = tested on: NCI-H322M lung
EKVX NSCLC = tested on: EKVX NSCLC
SF-268 CNS = tested on: SF-268 CNS
SW-620 colon = tested on: SW-620 colon
HOP-92 NSCLC = tested on: HOP-92 NSCLC
UACC-62 melanoma = tested on: UACC-62 melanoma
RXF 393 renal = tested on: RXF 393 renal
NCI-H522 lung = tested on: NCI-H522 lung
U251 glioblastoma = tested on: U251 glioblastoma
SF-539 CNS = tested on: SF-539 CNS
CAKI-1 renal = tested on: CAKI-1 renal
LOX IMVI melanoma = tested on: LOX IMVI melanoma
HCC-2998 colon = tested on: HCC-2998 colon
MCF7 breast = tested on: MCF7 breast
SNB-19 CNS = tested on: SNB-19 CNS
SR leukemia = tested on: SR leukemia
HOP-62 NSCLC = tested on: HOP-62 NSCLC
RPMI-8226 leukemia = tested on: RPMI-8226 leukemia
COLO 205 colon = tested on: COLO 205 colon
786-0 renal = tested on: 786-0 renal
SK-MEL-5 melanoma = tested on: SK-MEL-5 melanoma
SK-MEL-2 melanoma = tested on: SK-MEL-2 melanoma
MDA-MB-468 breast = tested on: MDA-MB-468 breast
NCI/ADR-RES ovarian = tested on: NCI/ADR-RES ovarian
MDA-MB-435 melanoma = tested on: MDA-MB-435 melanoma
SK-MEL-28 melanoma = tested on: SK-MEL-28 melanoma
SK-OV-3 ovarian = tested on: SK-OV-3 ovarian
DU-145 prostate = tested on: DU-145 prostate
MOLT-4 leukemia = tested on: MOLT-4 leukemia
SF-295 CNS = tested on: SF-295 CNS
TK-10 renal = tested on: TK-10 renal
SNB-75 CNS = tested on: SNB-75 CNS
NCI-H23 lung = tested on: NCI-H23 lung
NCI-H226 lung = tested on: NCI-H226 lung
OVCAR-8 ovarian = tested on: OVCAR-8 ovarian
HCT-15 colon = tested on: HCT-15 colon
HL-60(TB) leukemia = tested on: HL-60(TB) leukemia
T-47D breast = tested on: T-47D breast
MALME-3M melanoma = tested on: MALME-3M melanoma
OVCAR-4 ovarian = tested on: OVCAR-4 ovarian
SN12C renal = tested on: SN12C renal
KM12 colon = tested on: KM12 colon
NCI-H460 NSCLC = tested on: NCI-H460 NSCLC
A549 NSCLC = tested on: A549 NSCLC
OVCAR-3 ovarian = tested on: OVCAR-3 ovarian
MDA-MB-231 breast = tested on: MDA-MB-231 breast
K-562 leukemia = tested on: K-562 leukemia
HS 578T breast = tested on: HS 578T breast
HCT-116 colon = tested on: HCT-116 colon
IGROV1 ovarian = tested on: IGROV1 ovarian
M14 melanoma = tested on: M14 melanoma
ACHN renal = tested on: ACHN renal
UO-31 renal = tested on: UO-31 renal

## Cc1ccc(C(=O)N(CCCN)[C@@H](c2nc3cc(Cl)ccc3c(=O)n2Cc2ccccc2)C(C)C)cc1
PC-3 prostate
  GI50: < 10 nM
  TGI: 1620 nM
CCRF-CEM leukemia
  GI50: < 10 nM
  TGI: < 10 nM
OVCAR-5 ovarian
  GI50: < 10 nM
  TGI: 1250 nM
HT29 colon
  GI50: < 10 nM
  TGI: 1000 nM
A498 renal
  GI50: < 10 nM
  TGI: 1810 nM
NCI-H322M lung
  GI50: < 10 nM
  TGI: 1730 nM
EKVX NSCLC
  GI50: < 10 nM
  TGI: 1220 nM
SF-268 CNS
  GI50: < 10 nM
  TGI: 1650 nM
SW-620 colon
  GI50: < 10 nM
  TGI: 1060 nM
HOP-92 NSCLC
  GI50: < 10 nM
  TGI: 1700 nM
UACC-62 melanoma
  GI50: < 10 nM
  TGI: 1400 nM
RXF 393 renal
  GI50: < 10 nM
  TGI: < 10 nM
NCI-H522 lung
  GI50: < 10 nM
  TGI: < 10 nM
U251 glioblastoma
  GI50: < 10 nM
  TGI: 1430 nM
SF-539 CNS
  GI50: < 10 nM
  TGI: 20.2 nM
CAKI-1 renal
  GI50: < 10 nM
  TGI: 1920 nM
LOX IMVI melanoma
  GI50: < 10 nM
  TGI: 1530 nM
HCC-2998 colon
  GI50: < 10 nM
  TGI: 112 nM
MCF7 breast
  GI50: < 10 nM
  TGI: 1270 nM
SNB-19 CNS
  GI50: < 10 nM
  TGI: 1740 nM
SR leukemia
  GI50: < 10 nM
  TGI: < 10 nM
HOP-62 NSCLC
  GI50: < 10 nM
  TGI: 1950 nM
RPMI-8226 leukemia
  GI50: < 10 nM
  TGI: < 10 nM
COLO 205 colon
  GI50: < 10 nM
  TGI: < 10 nM
786-0 renal
  GI50: < 10 nM
  TGI: 1420 nM
SK-MEL-5 melanoma
  GI50: < 10 nM
  TGI: 14.7 nM
SK-MEL-2 melanoma
  GI50: < 10 nM
  TGI: < 10 nM
MDA-MB-468 breast
  GI50: < 10 nM
  TGI: < 10 nM
NCI/ADR-RES ovarian
  GI50: 109 nM
  TGI: 263 nM
MDA-MB-435 melanoma
  GI50: < 10 nM
  TGI: < 10 nM
SK-MEL-28 melanoma
  GI50: 1350 nM
  TGI: 2640 nM
SK-OV-3 ovarian
  GI50: < 10 nM
  TGI: 1540 nM
DU-145 prostate
  GI50: < 10 nM
  TGI: < 10 nM
MOLT-4 leukemia
  GI50: < 10 nM
  TGI: < 10 nM
SF-295 CNS
  GI50: < 10 nM
  TGI: < 10 nM
TK-10 renal
  GI50: 94.9 nM
  TGI: 2070 nM
SNB-75 CNS
  GI50: < 10 nM
  TGI: 1950 nM
NCI-H23 lung
  GI50: < 10 nM
  TGI: 1080 nM
NCI-H226 lung
  GI50: 1120 nM
  TGI: 2340 nM
OVCAR-8 ovarian
  GI50: < 10 nM
  TGI: 1200 nM
HCT-15 colon
  GI50: < 10 nM
  TGI: 1280 nM
HL-60(TB) leukemia
  GI50: < 10 nM
  TGI: < 10 nM
T-47D breast
  GI50: < 10 nM
  TGI: 1300 nM
MALME-3M melanoma
  GI50: < 10 nM
  TGI: 1890 nM
OVCAR-4 ovarian
  GI50: < 10 nM
  TGI: 1890 nM
SN12C renal
  GI50: < 10 nM
  TGI: 1790 nM
KM12 colon
  GI50: < 10 nM
  TGI: 927 nM
NCI-H460 NSCLC
  GI50: < 10 nM
  TGI: < 10 nM
A549 NSCLC
  GI50: < 10 nM
  TGI: 1800 nM
OVCAR-3 ovarian
  GI50: < 10 nM
  TGI: < 10 nM
MDA-MB-231 breast
  GI50: < 10 nM
  TGI: 1780 nM
K-562 leukemia
  GI50: < 10 nM
  TGI: < 10 nM
HS 578T breast
  GI50: < 10 nM
  TGI: < 10 nM
HCT-116 colon
  GI50: < 10 nM
  TGI: 1200 nM
IGROV1 ovarian
  GI50: 1100 nM
  TGI: 2320 nM
M14 melanoma
  GI50: < 10 nM
  TGI: < 10 nM
ACHN renal
  GI50: 1140 nM
  TGI: 2370 nM
UO-31 renal
  GI50: 1080 nM
  TGI: 2290 nM
